Results: PubChem BioAssay AID1963965 (Molecular Pharmacology Branch, DTP, NCI, 2024)

Tested on: 996289-038-R-J1-PDC spheroid viability
Assay: Anticancer human tumor 996289-038-R-J1-PDC patient-derived colon adenocarcinoma cell line growth inhibition [PI3K]
Settings: spheroids with HUVEC and MSC; for IC50: curve of first compound; for viability, T/C: stronger effect = lower value
How it was run: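 Targeted small molecules plus PI3K inhibitors, half-log dose series from Cmax (default top 10 microM), were applied to heterotypic spheroids of cancer cells with HUVEC and MSCs. Viability indicated growth inhibition.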

[1] = second compound 0.00316 µM, first compound 0.0316 µM
[2] = second compound 0.00316 µM, first compound 0.1 µM
[3] = second compound 0.00316 µM, first compound 0.316 µM
[4] = second compound 0.00316 µM, first compound 1 µM
[5] = second compound 0.01 µM, first compound 0.0316 µM
[6] = second compound 0.01 µM, first compound 0.1 µM
[7] = second compound 0.01 µM, first compound 0.316 µM
[8] = second compound 0.01 µM, first compound 1 µM
[9] = second compound 0.0316 µM, first compound 0.0316 µM
[10] = second compound 0.0316 µM, first compound 0.1 µM
[11] = second compound 0.0316 µM, first compound 0.316 µM
[12] = second compound 0.0316 µM, first compound 1 µM
[13] = second compound 0.1 µM, first compound 0.0316 µM
[14] = second compound 0.1 µM, first compound 0.1 µM
[15] = second compound 0.1 µM, first compound 0.316 µM
[16] = second compound 0.1 µM, first compound 1 µM
[17] = second compound 0.316 µM, first compound 0.0316 µM
[18] = second compound 0.316 µM, first compound 0.1 µM
[19] = second compound 0.316 µM, first compound 0.316 µM
[20] = second compound 0.316 µM, first compound 1 µM
[21] = second compound 1 µM, first compound 0.0316 µM
[22] = second compound 1 µM, first compound 0.1 µM
[23] = second compound 1 µM, first compound 0.316 µM
[24] = second compound 1 µM, first compound 1 µM
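Further: spheroids exposed to compounds for seven days before viability read.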
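Wherever viability, T/C is given: luminescence used as a proxy for viable cell amount; percent viability relative to DMSO vehicle control as 100%.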

SMILES: CC1(C)CCC(CN2CCN(c3ccc(C(=O)NS(=O)(=O)c4ccc(NCC5CCOCC5)c([N+](=O)[O-])c4)c(Oc4cnc5[nH]ccc5c4)c3)CC2)=C(c2ccc(Cl)cc2)C1 + CC(Nc1ccc2c(c1)OCCn1cc(N3C(=O)OCC3C(F)F)nc1-2)C(N)=O
- IC50 (second compound 0.00316 µM): 8.46 µM
- IC50 (second compound 0.01 µM): 8.25 µM
- IC50 (second compound 0.0316 µM): 6.53 µM
- IC50 (second compound 0.1 µM): 6.52 µM
- IC50 (second compound 0.316 µM): 4.81 µM
- IC50 (second compound 1 µM): 4.21 µM
- viability, T/C [1]: 83.7%
- viability, T/C [2]: 77.4%
- viability, T/C [3]: 95.8%
- viability, T/C [4]: 112%
- viability, T/C (second compound 0.00316 µM, first compound 3.16 µM): 93.5%
- viability, T/C (second compound 0.00316 µM, first compound 10 µM): 42.7%
- viability, T/C [5]: 92.3%
- viability, T/C [6]: 86.7%
- viability, T/C [7]: 87.4%
- viability, T/C [8]: 111%
- viability, T/C (second compound 0.01 µM, first compound 3.16 µM): 94.5%
- viability, T/C (second compound 0.01 µM, first compound 10 µM): 41%
- viability, T/C [9]: 95.2%
- viability, T/C [10]: 88.2%
- viability, T/C [11]: 94.7%
- viability, T/C [12]: 84.2%
- viability, T/C (second compound 0.0316 µM, first compound 3.16 µM): 90%
- viability, T/C (second compound 0.0316 µM, first compound 10 µM): 26.5%
- viability, T/C [13]: 80.3%
- viability, T/C [14]: 81.4%
- viability, T/C [15]: 79.1%
- viability, T/C [16]: 96.7%
- viability, T/C (second compound 0.1 µM, first compound 3.16 µM): 86.3%
- viability, T/C (second compound 0.1 µM, first compound 10 µM): 29.4%
- viability, T/C [17]: 70.3%
- viability, T/C [18]: 62.3%
- viability, T/C [19]: 61.7%
- viability, T/C [20]: 61.2%
- viability, T/C (second compound 0.316 µM, first compound 3.16 µM): 74.6%
- viability, T/C (second compound 0.316 µM, first compound 10 µM): 22%
- viability, T/C [21]: 55.5%
- viability, T/C [22]: 50.7%
- viability, T/C [23]: 59.3%
- viability, T/C [24]: 59.8%
- viability, T/C (second compound 1 µM, first compound 3.16 µM): 73.3%
- viability, T/C (second compound 1 µM, first compound 10 µM): 25.9%

SMILES: CCN1CCN(Cc2ccc(Nc3ncc(F)c(-c4cc(F)c5nc(C)n(C(C)C)c5c4)n3)nc2)CC1 + COc1c(OCCCN2CCOCC2)ccc2c3n(c(=NC(=O)c4cnc(N)nc4)nc12)CCN3
- IC50 (second compound 0.00316 µM): > 1 µM
- IC50 (second compound 0.01 µM): > 1 µM
- IC50 (second compound 0.0316 µM): > 1 µM
- IC50 (second compound 0.1 µM): 0.0412 µM
- IC50 (second compound 0.316 µM): < 0.00316 µM
- IC50 (second compound 1 µM): < 0.00316 µM
- viability, T/C (second compound 0.00316 µM, first compound 0.00316 µM): 107%
- viability, T/C (second compound 0.00316 µM, first compound 0.01 µM): 90.6%
- viability, T/C [1]: 92.6%
- viability, T/C [2]: 97.2%
- viability, T/C [3]: 82.9%
- viability, T/C [4]: 75.8%
- viability, T/C (second compound 0.01 µM, first compound 0.00316 µM): 105%
- viability, T/C (second compound 0.01 µM, first compound 0.01 µM): 80.7%
- viability, T/C [5]: 82.5%
- viability, T/C [6]: 82.7%
- viability, T/C [7]: 79.2%
- viability, T/C [8]: 67.6%
- viability, T/C (second compound 0.0316 µM, first compound 0.00316 µM): 75.2%
- viability, T/C (second compound 0.0316 µM, first compound 0.01 µM): 72.5%
- viability, T/C [9]: 76%
- viability, T/C [10]: 57.3%
- viability, T/C [11]: 59.6%
- viability, T/C [12]: 53.3%
- viability, T/C (second compound 0.1 µM, first compound 0.00316 µM): 57.4%
- viability, T/C (second compound 0.1 µM, first compound 0.01 µM): 52.1%
- viability, T/C [13]: 50.2%
- viability, T/C [14]: 47.3%
- viability, T/C [15]: 43.7%
- viability, T/C [16]: 35.2%
- viability, T/C (second compound 0.316 µM, first compound 0.00316 µM): 46.5%
- viability, T/C (second compound 0.316 µM, first compound 0.01 µM): 33.5%
- viability, T/C [17]: 29.2%
- viability, T/C [18]: 27.2%
- viability, T/C [19]: 22.7%
- viability, T/C [20]: 24.1%
- viability, T/C (second compound 1 µM, first compound 0.00316 µM): 21.2%
- viability, T/C (second compound 1 µM, first compound 0.01 µM): 15.1%
- viability, T/C [21]: 18.4%
- viability, T/C [22]: 15.5%
- viability, T/C [23]: 17.6%
- viability, T/C [24]: 19%
